The source of these data is patent US8895549B2, “Aminoalcohol substituted 2,3-dihydroimidazo[1,2-c]quinazoline derivatives useful for treating hyper-proliferative disorders and diseases associated with angiogenesis” (Bayer Intellectual Property GmbH, priority 2010, dated 2014).

Assay [1] deals with PI3Kβ (complex of human p110β and human p85α) (Homo sapiens (Human), UniProt P42338). Description: PI3Kβ kinase assay (HTRF-based PI3K inhibition assay).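 On all read-outs here: Kinase-made PIP3 detected by HTRF, displacing biotinylated PIP3 tracer from a complex of Europium anti-GST antibody, GST-fused PH domain and Streptavidin-APC, read as Europium-to-APC energy transfer.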 The assay is classed as biochemical. Conditions: for inhibition at 0.93 µM: 0.93 μM compound, read-out: PI3K beta average % Inhibition at 0.93 μM; for IC50: 10 μM ATP, 10 μM PIP2, 20 min at 22° C., read-out: average IC50 in the PI3K beta biochemical assay; for PI3K beta average IC50/PI3K alpha average IC50: ratio of beta IC50 to alpha IC50.
Text: (§1) Determination of % Inhibition and IC50 Values of Compounds in PI3Kα Kinase Assay
PI3Kα inhibitory activity of compounds of the present invention was quantified employing the HTRF based PI3K inhibition assay as described below.
(§2) As reagents for the kinase reaction itself and the quantification of the reaction product, the PI3-Kinase HTRF Assay kit from Millipore (#33-017) was used. With this kit the phosphatidylinositol 3,4,5-trisphosphate (PIP3) generated in the kinase reaction is detected by displacement of a biotinylated ligand from an energy transfer complex consisting of a Europium-labeled anti-GST monoclonal antibody, a GST-tagged PH domain, biotinylated PIP3 and Streptavidin-Allophycocyanin (APC).
For the assay 50 nL of a 80-fold concentrated solution of the test compound in DMSO was pipetted into a black low volume 384-well microtiter plate (Greiner Bio-One, Frickenhausen, Germany), 3 μl of a solution of PI3Kβ and phosphatidylinositol-4,5-bisphosphate (PIP2, 13.8 μM=> final conc. in 4 μl reaction volume=10 μM) in 1× reaction buffer (exact composition not disclosed by the vendor) were added and the mixture was incubated for 15 min at 22° C. to allow pre-binding of the test compounds to the enzyme before the start of the kinase reaction. The amount of PI3Kβ was chosen to have the enzyme reaction in the linear range and depended on the activity of the individual lot, typical concentrations in assay were in the range of 120 ng/mL. Then the kinase reaction was started by the addition of 1 μL of a solution of adenosine triphosphate (ATP, 40 μM=> final conc. in the 4 μl assay volume is 10 μM) in reaction buffer and the resulting mixture was incubated for a reaction time of 20 min at 22° C.
The reaction was stopped by the addition of 1 μL of an stop solution (containing the biotinylated PIP3 used as a tracer). Then 1 μL detection mix (containing a Europium-labeled anti-GST monoclonal antibody, a GST-tagged PH domain, and Streptavidin-Allophycocyanin) was added and resulting mixture was incubated for 3 h at 22° C. to allow the formation of complexes between the detection reagents and either the PIP3 generated in the kinase reaction, or the biotinylated PIP3 added with the stop solution. Subsequently the amount of energy transfer complex consisting of a Europium-labeled anti-GST monoclonal antibody, a GST-tagged PH domain, biotinylated PIP3 and Streptavidin-Allophycocyanin (APC) was evaluated by measurement of the resonance energy transfer from the Europium-labeled anti-GST monoclonal antibody to the Streptavidin-Allophycocyanin. Therefore, the fluorescence emissions at 620 nm and 665 nm after excitation at 350 nm were measured using a TR-FRET reader, e.g., a Pherastar (BMG Labtechnologies, Offenburg, Germany) or a Viewlux (Perkin-Elmer). The ratio of the emissions at 665 nm and at 622 nm were taken as the measure for the amount of biotinylated PIP3 bound to the GST-tagged PH domain, which is negatively correlated with the amount of PIP3 generated.

The target in assay [2] is PI3Kα (complex of human p110α and human p85α) (Homo sapiens (Human), UniProt P42336). Nature of the assay: PI3Kα kinase assay (HTRF-based PI3K inhibition assay).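 On all read-outs here: PIP3 product detected by HTRF, reading resonance energy transfer from Europium-labeled anti-GST antibody to Streptavidin-APC, as displacement of biotinylated PIP3 tracer from the GST-PH domain complex.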 Particulars: for inhibition at 0.93 µM: 0.93 μM compound, read-out: PI3K alpha average % Inhibition at 0.93 μM; for IC50: 10 μM ATP, 10 μM PIP2, 20 min at 22° C., read-out: average IC50 in the PI3K alpha biochemical assay. The class given is biochemical.
Text: as §1
PI3Kα inhibitory activity of compounds of the present invention was quantified employing the HTRF-based PI3K inhibition assay as described below.
as §2
For the assay 50 nL of a 80-fold concentrated solution of the test compound in DMSO was pipetted into a black low volume 384-well microtiter plate (Greiner Bio-One, Frickenhausen, Germany), 3 μL of a solution of PI3Kα and phosphatidylinositol-4,5-bisphosphate (PIP2, 13.8 μM=> final conc. in 4 μl reaction volume=10 μM) in 1× reaction buffer (exact composition not disclosed by the vendor) were added and the mixture was incubated for 15 min at 22° C. to allow pre-binding of the test compounds to the enzyme before the start of the kinase reaction. The amount of PI3Kα was chosen to have the enzyme reaction in the linear range and depended on the activity of the individual lot, typical concentrations in assay were in the range of 90 ng/mL. Then the kinase reaction was started by the addition of 1 μL of a solution of adenosine triphosphate (ATP, 40 μM=> final conc. in the 4 μL assay volume is 10 μM) in reaction buffer and the resulting mixture was incubated for a reaction time of 20 min at 22° C.
The reaction was stopped by the addition of 1 μL of an stop solution (containing the biotinylated PIP3 used as a tracer), then 1 μL detection mix (containing a Europium-labeled anti-GST monoclonal antibody, a GST-tagged PH domain, and Streptavidin-Allophycocyanin) was added and resulting mixture was incubated 3 h at 22° C. to allow the formation of complexes between the detection reagents and either the PIP3 generated in the kinase reaction, or the biotinylated PIP3 added with the stop solution. Subsequently, the amount of energy transfer complex consisting of a Europium-labeled anti-GST monoclonal antibody, a GST-tagged PH domain, biotinylated PIP3 and Streptavidin-Allophycocyanin (APC) was evaluated by measurement of the resonance energy transfer from the Europium-labeled anti-GST monoclonal antibody to the Streptavidin-Allophycocyanin. Therefore, the fluorescence emissions at 620 nm and 665 nm after excitation at 350 nm were measured using a TR-FRET reader, e.g., a Pherastar (BMG Labtechnologies, Offenburg, Germany) or a Viewlux (Perkin-Elmer). The ratio of the emissions at 665 nm and at 622 nm was taken as the measure for the amount of biotinylated PIP3 bound to the GST-tagged PH domain, which is negatively correlated with the amount of PIP3 generated.

Structures are written as SMILES. Where a name gives a salt, the structure may show the parent alone.

PI3Kβ (complex of human p110β and human p85α), sequence (P42338 whole entry, the tested form may be a part): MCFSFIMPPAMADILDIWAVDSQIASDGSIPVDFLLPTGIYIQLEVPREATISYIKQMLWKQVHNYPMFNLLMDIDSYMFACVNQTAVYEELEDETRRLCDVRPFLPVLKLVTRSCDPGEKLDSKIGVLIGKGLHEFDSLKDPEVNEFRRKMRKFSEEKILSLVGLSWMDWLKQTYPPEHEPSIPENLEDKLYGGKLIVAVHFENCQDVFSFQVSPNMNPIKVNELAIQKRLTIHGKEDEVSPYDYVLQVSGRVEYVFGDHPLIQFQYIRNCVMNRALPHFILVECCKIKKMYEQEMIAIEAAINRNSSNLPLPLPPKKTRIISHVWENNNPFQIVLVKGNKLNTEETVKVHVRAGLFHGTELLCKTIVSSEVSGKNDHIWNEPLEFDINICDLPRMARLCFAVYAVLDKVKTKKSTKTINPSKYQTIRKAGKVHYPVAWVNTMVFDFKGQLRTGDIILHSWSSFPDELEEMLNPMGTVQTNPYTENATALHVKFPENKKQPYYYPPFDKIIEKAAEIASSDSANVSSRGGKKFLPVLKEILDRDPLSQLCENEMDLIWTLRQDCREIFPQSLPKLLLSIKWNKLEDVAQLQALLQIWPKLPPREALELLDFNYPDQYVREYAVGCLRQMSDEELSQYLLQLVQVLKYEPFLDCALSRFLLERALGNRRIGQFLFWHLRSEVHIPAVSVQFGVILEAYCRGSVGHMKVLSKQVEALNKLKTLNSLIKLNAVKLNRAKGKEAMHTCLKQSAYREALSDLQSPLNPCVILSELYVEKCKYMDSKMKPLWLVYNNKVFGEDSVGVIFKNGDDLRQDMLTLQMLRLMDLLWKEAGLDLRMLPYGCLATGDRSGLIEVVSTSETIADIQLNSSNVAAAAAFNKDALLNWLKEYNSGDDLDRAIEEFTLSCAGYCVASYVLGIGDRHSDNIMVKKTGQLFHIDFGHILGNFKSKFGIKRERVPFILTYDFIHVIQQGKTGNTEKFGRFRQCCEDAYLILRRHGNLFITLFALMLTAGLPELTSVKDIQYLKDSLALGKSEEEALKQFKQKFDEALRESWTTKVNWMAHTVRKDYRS
PI3Kβ (complex of human p110β and human p85α), sequence (P27986 whole entry partner, the tested form may be a part): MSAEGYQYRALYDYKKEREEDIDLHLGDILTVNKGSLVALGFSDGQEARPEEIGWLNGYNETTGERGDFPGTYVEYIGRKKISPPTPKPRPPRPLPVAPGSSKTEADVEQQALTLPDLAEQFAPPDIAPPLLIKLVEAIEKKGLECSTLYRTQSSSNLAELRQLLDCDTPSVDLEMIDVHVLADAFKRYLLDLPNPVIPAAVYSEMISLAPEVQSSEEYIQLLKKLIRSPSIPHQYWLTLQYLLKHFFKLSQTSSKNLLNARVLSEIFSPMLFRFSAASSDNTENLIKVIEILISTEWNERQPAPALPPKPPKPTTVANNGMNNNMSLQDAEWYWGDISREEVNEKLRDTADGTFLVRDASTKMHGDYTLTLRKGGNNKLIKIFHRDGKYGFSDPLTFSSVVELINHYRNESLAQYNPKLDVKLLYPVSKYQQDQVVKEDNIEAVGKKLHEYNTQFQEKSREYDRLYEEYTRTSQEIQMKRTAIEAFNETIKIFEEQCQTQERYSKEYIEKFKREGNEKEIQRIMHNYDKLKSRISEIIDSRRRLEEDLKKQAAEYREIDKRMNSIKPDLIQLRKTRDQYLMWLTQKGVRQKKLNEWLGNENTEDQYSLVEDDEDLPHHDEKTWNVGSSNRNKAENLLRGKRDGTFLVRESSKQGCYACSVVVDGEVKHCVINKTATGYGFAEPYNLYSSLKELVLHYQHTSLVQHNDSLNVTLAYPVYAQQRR
PI3Kα (complex of human p110α and human p85α), sequence (P42336 whole entry, the tested form may be a part): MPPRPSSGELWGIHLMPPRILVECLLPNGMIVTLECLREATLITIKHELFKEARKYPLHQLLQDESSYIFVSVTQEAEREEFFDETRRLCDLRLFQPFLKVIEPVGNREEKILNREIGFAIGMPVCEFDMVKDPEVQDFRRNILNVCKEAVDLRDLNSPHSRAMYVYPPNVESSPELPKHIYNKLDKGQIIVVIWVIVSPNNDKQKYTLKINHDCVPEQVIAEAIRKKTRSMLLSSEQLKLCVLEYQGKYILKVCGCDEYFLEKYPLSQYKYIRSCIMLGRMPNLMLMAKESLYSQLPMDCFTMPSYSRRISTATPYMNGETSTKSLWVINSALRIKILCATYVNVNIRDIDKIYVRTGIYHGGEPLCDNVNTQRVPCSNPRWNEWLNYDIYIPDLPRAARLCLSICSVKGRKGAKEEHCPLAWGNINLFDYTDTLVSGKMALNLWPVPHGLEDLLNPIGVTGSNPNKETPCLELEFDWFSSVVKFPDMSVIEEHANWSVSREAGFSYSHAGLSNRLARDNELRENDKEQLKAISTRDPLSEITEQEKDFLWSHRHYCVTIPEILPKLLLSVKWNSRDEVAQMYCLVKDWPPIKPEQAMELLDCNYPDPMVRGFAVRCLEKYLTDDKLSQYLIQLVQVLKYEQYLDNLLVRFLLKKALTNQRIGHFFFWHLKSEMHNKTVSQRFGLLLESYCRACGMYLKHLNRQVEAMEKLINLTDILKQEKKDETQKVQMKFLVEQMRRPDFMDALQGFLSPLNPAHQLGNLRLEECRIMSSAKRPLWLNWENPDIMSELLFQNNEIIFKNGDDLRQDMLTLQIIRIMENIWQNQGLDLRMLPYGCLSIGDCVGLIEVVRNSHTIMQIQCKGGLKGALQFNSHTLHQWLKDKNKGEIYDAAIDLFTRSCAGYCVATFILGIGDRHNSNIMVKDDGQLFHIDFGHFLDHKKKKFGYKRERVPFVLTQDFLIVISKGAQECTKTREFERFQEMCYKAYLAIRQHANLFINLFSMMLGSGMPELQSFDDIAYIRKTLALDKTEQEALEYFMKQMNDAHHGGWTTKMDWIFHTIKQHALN
PI3Kα (complex of human p110α and human p85α), sequence (P27986 whole entry partner, the tested form may be a part): as the sequence (P27986 whole entry partner, the tested form may be a part) above

In the case of `COc1c(OC[C@H](O)CN2CCOCC2)ccc2c1N=C(NC(=O)c1ccc(N)nc1C)N1CCN=C21` [Example 23, 6-Amino-N-(8-{[(2R)-2-hydroxy-3-(morpholin-4-yl)propyl]oxy}-7-methoxy-2,3-dihydroimidazo[1,2-c]quinazolin-5-yl)-2-methylpyridine-3-carboxamide], in assay [1], the inhibition at 0.93 µM stood at 119%, the IC50 fell in the range of 10 to 50 nM and the “PI3K beta average IC50/PI3K alpha average IC50” value came to 7.30. Further, in assay [2], the inhibition at 0.93 µM turned out to be 105% and the IC50 is under 10 nM.

Take `COc1c(OC[C@H](O)CN2CCCC2)ccc2c1N=C(NC(=O)c1cncnc1)N1CCN=C21` [Example 24, N-(8-{[(2R)-2-hydroxy-3-(pyrrolidin-1-yl)propyl]oxy}-7-methoxy-2,3-dihydroimidazo[1,2-c]quinazolin-5-yl)pyrimidine-5-carboxamide]: in assay [1], the inhibition at 0.93 µM is 94.7%, the IC50 lay within 10 to 50 nM and the “PI3K beta average IC50/PI3K alpha average IC50” value was 1.99. Moreover, in assay [2], the inhibition at 0.93 µM stood at 85.1% and the IC50 was 10 to 50 nM.

With `COc1c(OCC(O)CN2CCOCC2)ccc2c1N=C(NC(=O)c1cnc(N)nc1)N1CCN=C21` (stereo not shown) [Example 25, 2-Amino-N-{8-[2-hydroxy-3-(morpholin-4-yl)propoxy]-7-methoxy-2,3-dihydroimidazo[1,2-c]quinazolin-5-yl}pyrimidine-5-carboxamide], in assay [1], the inhibition at 0.93 µM came to 93.3%, the 50% inhibitory concentration (IC50) is under 10 nM and the “PI3K beta average IC50/PI3K alpha average IC50” value is reported as 8.30. In assay [2], the inhibition at 0.93 µM was determined as 92.7% and the IC50 was under 10 nM.

Regarding `COc1c(OC[C@H](O)CN2C[C@@H](C)O[C@@H](C)C2)ccc2c1N=C(NC(=O)c1cnc(N)nc1)N1CCN=C21` [Example 27, 2-amino-N-[8-({(2R)-3-[(2R,6S)-2,6-dimethylmorpholin-4-yl]-2-hydroxypropyl}oxy)-7-methoxy-2,3-dihydroimidazo[1,2-c]quinazolin-5-yl]pyrimidine-5-carboxamide], in assay [1], the inhibition at 0.93 µM was 102%, the half-maximal inhibitory concentration (IC50) was 10 to 50 nM and the “PI3K beta average IC50/PI3K alpha average IC50” value is 5.52. In assay [2], the inhibition at 0.93 µM was determined as 97.9% and the 50% inhibitory concentration (IC50) was under 10 nM.

Turning to `COc1c(OC[C@H](O)CN2CC3CCC(C2)O3)ccc2c1N=C(NC(=O)c1cnc(N)nc1)N1CCN=C21` [Example 28, 2-Amino-N-(8-{[(2R)-2-hydroxy-3-(8-oxa-3-azabicyclo[3.2.1]oct-3-yl)propyl]oxy}-7-methoxy-2,3-dihydroimidazo[1,2-c]quinazolin-5-yl)pyrimidine-5-carboxamide dihydrochloride], the inhibition at 0.93 µM in assay [1] and in assay [2] was 102% each time. Besides, the IC50 in assay [1] and in assay [2] was under 10 nM in each case.

Regarding `COc1c(OC[C@H](O)CN(C)C)ccc2c1N=C(NC(=O)c1cnc(N)nc1)N1CCN=C21` [Example 29, 2-Amino-N-(8-{[(2R)-3-(dimethylamino)-2-hydroxypropyl]oxy}-7-methoxy-2,3-dihydroimidazo[1,2-c]quinazolin-5-yl)pyrimidine-5-carboxamide], in assay [1], the inhibition at 0.93 µM stood at 106%, the IC50 is under 10 nM and the “PI3K beta average IC50/PI3K alpha average IC50” value is listed as 6.75. In assay [2], the inhibition at 0.93 µM is 102% and the IC50 was under 10 nM.

For `COc1c(OC[C@H](O)CN2CCOCC2)ccc2c1N=C(NC(=O)c1cnc3[nH]cnc3c1)N1CCN=C21` [Example 30, N-(8-{[(2R)-2-Hydroxy-3-(morpholin-4-yl)propyl]oxy}-7-methoxy-2,3-dihydroimidazo[1,2-c]quinazolin-5-yl)-3H-imidazo[4,5-b]pyridine-6-carboxamide], in assay [1], the inhibition at 0.93 µM was 108%, the half-maximal inhibitory concentration (IC50) fell in the range of 10 to 50 nM and the “PI3K beta average IC50/PI3K alpha average IC50” value came out at 8.83. Besides, in assay [2], the inhibition at 0.93 µM worked out at 110% and the half-inhibitory concentration (IC50) was under 10 nM.

On to `COc1c(OC[C@H](O)CN2CCOCC2)ccc2c1N=C(NC(=O)c1cncs1)N1CCN=C21` [Example 32, N-(8-{[(2R)-2-Hydroxy-3-(morpholin-4-yl)propyl]oxy}-7-methoxy-2,3-dihydroimidazo[1,2-c]quinazolin-5-yl)-1,3-thiazole-5-carboxamide], for which, in assay [1], the inhibition at 0.93 µM was 95.5%, the 50% inhibitory concentration (IC50) is 10 to 50 nM and the “PI3K beta average IC50/PI3K alpha average IC50” value stood at 5.91. Also, in assay [2], the inhibition at 0.93 µM turned out to be 96.1% and the IC50 is under 10 nM.

For `COc1c(OC[C@H](O)CN2C[C@@H](C)O[C@@H](C)C2)ccc2c1N=C(NC(=O)c1cncs1)N1CCN=C21` [Example 34, N-[8-({(2R)-3-[(2R,6S)-2,6-dimethylmorpholin-4-yl]-2-hydroxypropyl}oxy)-7-methoxy-2,3-dihydroimidazo[1,2-c]quinazolin-5-yl]-1,3-thiazole-5-carboxamide], in assay [1], the inhibition at 0.93 µM is 97.1%, the IC50 fell in the range of 10 to 50 nM and the “PI3K beta average IC50/PI3K alpha average IC50” value is on record as 7.21. Also, in assay [2], the inhibition at 0.93 µM is 94.2% and the IC50 was under 10 nM.

In the case of `COc1c(OC[C@H](O)CN2CCC2)ccc2c1N=C(NC(=O)c1cncs1)N1CCN=C21` [Example 35, N-(8-{[(2R)-3-(Azetidin-1-yl)-2-hydroxypropyl]oxy}-7-methoxy-2,3-dihydroimidazo[1,2-c]quinazolin-5-yl)-1,3-thiazole-5-carboxamide], in assay [1], the inhibition at 0.93 µM stood at 102%, the half-inhibitory concentration (IC50) lay within 10 to 50 nM and the “PI3K beta average IC50/PI3K alpha average IC50” value was 6.30. In assay [2], the inhibition at 0.93 µM was found to be 109% and the half-maximal inhibitory concentration (IC50) is under 10 nM.

For `COc1c(OC[C@H](O)CN2CCCC2)ccc2c1N=C(NC(=O)c1cncs1)N1CCN=C21` [Example 36, N-(8-{[(2R)-2-Hydroxy-3-(pyrrolidin-1-yl)propyl]oxy}-7-methoxy-2,3-dihydroimidazo[1,2-c]quinazolin-5-yl)-1,3-thiazole-5-carboxamide], in assay [1], the inhibition at 0.93 µM is 93.9%, the IC50 is 10 to 50 nM and the “PI3K beta average IC50/PI3K alpha average IC50” value came out at 3.41. Also, in assay [2], the inhibition at 0.93 µM was determined as 92.4% and the IC50 was under 10 nM.

`COc1c(OC[C@H](O)CN2CCCCC2)ccc2c1N=C(NC(=O)c1cncs1)N1CCN=C21` [Example 37, N-(8-{[(2R)-2-Hydroxy-3-(piperidin-1-yl)propyl]oxy}-7-methoxy-2,3-dihydroimidazo[1,2-c]quinazolin-5-yl)-1,3-thiazole-5-carboxamide]: in assay [1], the inhibition at 0.93 µM is 93.7%, the 50% inhibitory concentration (IC50) is 10 to 50 nM and the “PI3K beta average IC50/PI3K alpha average IC50” value came out at 2.98. Also, in assay [2], the inhibition at 0.93 µM was 103% and the half-maximal inhibitory concentration (IC50) was under 10 nM.

As for `COc1c(OC[C@H](O)CN2CCCC2)ccc2c1N=C(NC(=O)c1scnc1C)N1CCN=C21` [Example 38, N-(8-{[(2R)-2-Hydroxy-3-(pyrrolidin-1-yl)propyl]oxy}-7-methoxy-2,3-dihydroimidazo[1,2-c]quinazolin-5-yl)-4-methyl-1,3-thiazole-5-carboxamide], in assay [1], the inhibition at 0.93 µM came out at 95.1%, the IC50 was under 10 nM and the “PI3K beta average IC50/PI3K alpha average IC50” value amounted to 5.64. Moreover, in assay [2], the inhibition at 0.93 µM turned out to be 92.8% and the half-maximal inhibitory concentration (IC50) is under 10 nM.
